Source: US20110092367A1, “Herbicidal Compositions Comprising 4-amino-3,6-dichloropyridine-2-carboxylic Acid” (BASF SE, priority 2008, published 2011)

Tests used:
Type in all cases: in vivo
Sinapis alba = experiment: Field trial Example 1, successive application: damage on SINAL; conditions: DAT 25/DALT 10
Description: (§1) Aminiopyralid was used as commercial aquaeous solution having an active ingredient concentration of 240 g/l (Milestone™). Metazachlor was used as a commercial suspension concentrate having an active ingredient concentration of 500 g/l (Butisan S®).
(§2) The performance of aminopyralid applied as an alone treatment at 15, 30 and 50 g a.i./ha applied as an early post emergence treatment and an post emergence treatment in comparison to two different applications including metazachlor at 500 g a.i./ha as an early post emergence application in succession of aminopyralid as a post emergence application at 15 and 30 g a.i./ha was assessed in an oilseed rape field trials.
(§3) The early post emergence treatment was applied by means of fine distributed nozzles at the growth stage (GS) of the crop BBCH 11-12.
(§4) The post emergence treatment was applied by means of fine distributed nozzles at the growth stage (GS) of the crop BBCH 13-14.
(§5) The test period extended over the autumn and spring season (205 days).
(§6) In the following experiments, the herbicidal activity for the individual herbicide compounds (solo application) and of the herbicidal succession was assessed 4 times:
(§7) The evaluation for the damage on undesired weeds caused by the chemical compositions was carried out using a scale from 0 to 100%, compared to the untreated control plants. Here, 0 means no damage and 100 means complete destruction of the plants.

Veronica persica = experiment: Field trial Example 1, successive application: damage on VERPE
Description: as §1, §2, §3, §4, §5, §6, §7

Geranium pusillum = experiment: Field trial Example 1, successive application: damage on GERPU
Description: as §1, §2, §3, §4, §5, §6, §7

Sissimbrium officinale = experiment: Field trial Example 1, successive application: damage on SSYOF
Description: as §1, §2, §3, §4, §5, §6, §7

Stellaria media = experiment: Field trial Example 2, combined application: STEME; conditions: Aminopyralid 7.5 g ai/ha solo, 28 DAT
Method: as §1, §7
The value E, which is to be expected if the activity of the individual compounds is just additive, was calculated using the method of S. R. Colby (1967) “Calculating synergistic and antagonistic responses of herbicide combinations”, Weeds 15, p. 22 ff.
The performance of aminopyralid, applied as an alone treatment at […] and 15 g ai/ha, and the performance of metazachlor, applied as an alone treatment at 375 and 500 g ai/ha, as well as the mixtures of the both compounds have been assessed in winter oilseed rape field trials. The trials have been conducted in Germany at two locations.
Post emergence treatment was applied by means of fine distributed nozzels at the growth stage (GS/BBCH 11/12).

Papaver rhoeas = experiment: Greenhouse trial, post-emergence: PAPRH; conditions: aminopyralid 10 g ai/ha solo
Method: (§8) The test plants have been seeded, separately for each species, in plastic containers in sandy loamy soil containing 5% organic matter.
(§9) For the post emergence treatment, the plants were first grown to the 2 leaf station (GS 12). Here, the herbicidal compositions were suspended or emulsified in water as distribution medium and sprayed using finely distributing nozzels.
(§10) The plants have been cultivated due to there individual requirements at 10-25° C. and 20-35° C. The plants were irrigated due to there necessity. […]
as §7
(§11) Calculation of expected activity of binary mixtures was done by using the Colby-Formula according to Example 1.

Matricaria chamomilla = experiment: Greenhouse trial, post-emergence: MATCH; conditions: read-out: % activity, MATCH
Method: as §8, §9
The plants have been cultivated due to there individual requirements at 10-25° C. and 20-35° C. The plants were irrigated due to there necessity.
In the following experiments, the herbicidal activity for the individual herbicide compounds (solo and mixture applications), the herbicidal succession was assessed 14 days after treatment (DAT).
as §7, §11
E=(X+Y+Z)−(X*Y+X*Z+Y*Z/100)+(X*Y*Z/1000)
Tables 6 to 10 relate to the herbicidal activity, in greenhouse trials, of the individual actives and the combination in post-emergence application 14 DAT.

Centauria cyanus = experiment: Greenhouse trial, post-emergence: CENCY; conditions: for % activity 28 DAT: CENCY, post-emergence (Tables 7-9)
Method: as §8, §9, §10, §7, §11

[1] = 15 g ai/ha, treatment A early post emergence, DAT 25/DALT 10
[2] = 15 g ai/ha, treatment A early post emergence, DAT 65/DALT 50
[3] = 15 g ai/ha, treatment A early post emergence, DAT 176/DALT 161
[4] = 15 g ai/ha, treatment B post emergence, DAT 25/DALT 10
[5] = 15 g ai/ha, treatment B post emergence, DAT 65/DALT 50
[6] = 15 g ai/ha, treatment B post emergence, DAT 176/DALT 161
[7] = 30 g ai/ha, treatment A early post emergence, DAT 25/DALT 10
[8] = 30 g ai/ha, treatment A early post emergence, DAT 65/DALT 50
[9] = 30 g ai/ha, treatment A early post emergence, DAT 176/DALT 161
[10] = 30 g ai/ha, treatment B post emergence, DAT 25/DALT 10
[11] = 30 g ai/ha, treatment B post emergence, DAT 65/DALT 50
[12] = 30 g ai/ha, treatment B post emergence, DAT 176/DALT 161
[13] = 50 g ai/ha, treatment A early post emergence, DAT 25/DALT 10
[14] = 50 g ai/ha, treatment A early post emergence, DAT 65/DALT 50
[15] = 50 g ai/ha, treatment A early post emergence, DAT 176/DALT 161
[16] = 50 g ai/ha, treatment B post emergence, DAT 25/DALT 10
[17] = 50 g ai/ha, treatment B post emergence, DAT 65/DALT 50
[18] = 50 g ai/ha, treatment B post emergence, DAT 176/DALT 161
[19] = aminopyralid 15 g ai/ha, treatment A, DAT 205/DALT 190
[20] = aminopyralid 15 g ai/ha, treatment B, DAT 205/DALT 190
[21] = aminopyralid 30 g ai/ha, treatment A, DAT 205/DALT 190
[22] = aminopyralid 30 g ai/ha, treatment B, DAT 205/DALT 190
[23] = aminopyralid 50 g ai/ha, treatment A, DAT 205/DALT 190
[24] = aminopyralid 50 g ai/ha, treatment B, DAT 205/DALT 190
[25] = post-emergence, 672 h, read-out: % activity 28 DAT, CENCY

Compound: Nc1cc(Cl)nc(C(=O)O)c1Cl [aminopyralid, 4-amino-3,6-dichloropyridine-2-carboxylic acid]
- damage on SINAL (Sinapis alba; 15 g ai/ha, treatment A early post emergence): 13%
- damage on SINAL (Sinapis alba; 15 g ai/ha, treatment B post emergence): 0%
- damage on SINAL (Sinapis alba; 30 g ai/ha, treatment A early post emergence): 50%
- damage on SINAL (Sinapis alba; 30 g ai/ha, treatment B post emergence): 0%
- damage on SINAL (Sinapis alba; 50 g ai/ha, treatment A early post emergence): 67%
- damage on SINAL (Sinapis alba; 50 g ai/ha, treatment B post emergence): 0%
- damage on VERPE (Veronica persica; [1]): 0%
- damage on VERPE (Veronica persica; [2]): 0%
- damage on VERPE (Veronica persica; [3]): 0%
- damage on VERPE (Veronica persica; [4]): 0%
- damage on VERPE (Veronica persica; [5]): 0%
- damage on VERPE (Veronica persica; [6]): 12%
- damage on VERPE (Veronica persica; [7]): 23%
- damage on VERPE (Veronica persica; [8]): 13%
- damage on VERPE (Veronica persica; [9]): 12%
- damage on VERPE (Veronica persica; [10]): 0%
- damage on VERPE (Veronica persica; [11]): 0%
- damage on VERPE (Veronica persica; [12]): 10%
- damage on VERPE (Veronica persica; [13]): 73%
- damage on VERPE (Veronica persica; [14]): 50%
- damage on VERPE (Veronica persica; [15]): 50%
- damage on VERPE (Veronica persica; [16]): 13%
- damage on VERPE (Veronica persica; [17]): 20%
- damage on VERPE (Veronica persica; [18]): 30%
- damage on VERPE (Veronica persica; [19]): 0%
- damage on VERPE (Veronica persica; [20]): 18%
- damage on VERPE (Veronica persica; [21]): 12%
- damage on VERPE (Veronica persica; [22]): 12%
- damage on VERPE (Veronica persica; [23]): 48%
- damage on VERPE (Veronica persica; [24]): 33%
- damage on GERPU (Geranium pusillum; [1]): 57%
- damage on GERPU (Geranium pusillum; [2]): 72%
- damage on GERPU (Geranium pusillum; [3]): 78%
- damage on GERPU (Geranium pusillum; [4]): 75%
- damage on GERPU (Geranium pusillum; [5]): 68%
- damage on GERPU (Geranium pusillum; [6]): 75%
- damage on GERPU (Geranium pusillum; [7]): 92%
- damage on GERPU (Geranium pusillum; [8]): 90%
- damage on GERPU (Geranium pusillum; [9]): 95%
- damage on GERPU (Geranium pusillum; [10]): 78%
- damage on GERPU (Geranium pusillum; [11]): 82%
- damage on GERPU (Geranium pusillum; [12]): 93%
- damage on GERPU (Geranium pusillum; [13]): 98%
- damage on GERPU (Geranium pusillum; [14]): 98%
- damage on GERPU (Geranium pusillum; [15]): 97%
- damage on GERPU (Geranium pusillum; [16]): 78%
- damage on GERPU (Geranium pusillum; [17]): 83%
- damage on GERPU (Geranium pusillum; [18]): 97%
- damage on GERPU (Geranium pusillum; [19]): 73%
- damage on GERPU (Geranium pusillum; [20]): 73%
- damage on GERPU (Geranium pusillum; [21]): 99%
- damage on GERPU (Geranium pusillum; [22]): 96%
- damage on GERPU (Geranium pusillum; [23]): 98%
- damage on GERPU (Geranium pusillum; [24]): 98%
- damage on SSYOF (Sissimbrium officinale; [1]): 33%
- damage on SSYOF (Sissimbrium officinale; [2]): 0%
- damage on SSYOF (Sissimbrium officinale; [3]): 0%
- damage on SSYOF (Sissimbrium officinale; [4]): 53%
- damage on SSYOF (Sissimbrium officinale; [5]): 0%
- damage on SSYOF (Sissimbrium officinale; [6]): 0%
- damage on SSYOF (Sissimbrium officinale; [7]): 71%
- damage on SSYOF (Sissimbrium officinale; [8]): 25%
- damage on SSYOF (Sissimbrium officinale; [9]): 25%
- damage on SSYOF (Sissimbrium officinale; [10]): 60%
- damage on SSYOF (Sissimbrium officinale; [11]): 27%
- damage on SSYOF (Sissimbrium officinale; [12]): 27%
- damage on SSYOF (Sissimbrium officinale; [13]): 86%
- damage on SSYOF (Sissimbrium officinale; [14]): 50%
- damage on SSYOF (Sissimbrium officinale; [15]): 50%
- damage on SSYOF (Sissimbrium officinale; [16]): 72%
- damage on SSYOF (Sissimbrium officinale; [17]): 32%
- damage on SSYOF (Sissimbrium officinale; [18]): 32%
- damage on SSYOF (Sissimbrium officinale; [19]): 0%
- damage on SSYOF (Sissimbrium officinale; [20]): 0%
- damage on SSYOF (Sissimbrium officinale; [21]): 23%
- damage on SSYOF (Sissimbrium officinale; [22]): 50%
- damage on SSYOF (Sissimbrium officinale; [23]): 62%
- damage on SSYOF (Sissimbrium officinale; [24]): 52%
- % activity (Stellaria media): 75%
- % activity 28 DAT (Papaver rhoeas; post-emergence (Table 10)): 95%
- % activity 28 DAT (Papaver rhoeas; post-emergence (Tables 7-9)): 35%
- inhibition at 5 g/ha (Matricaria chamomilla): 75%
- inhibition at 10 g/ha (Matricaria chamomilla): 85%
- % activity 28 DAT (Centauria cyanus; aminopyralid 5 g ai/ha solo): 60%
- % activity 28 DAT (Centauria cyanus; aminopyralid 10 g ai/ha solo): 65%
- inhibition at 5 g/ha (Centauria cyanus; [25]): 70%
- inhibition at 10 g/ha (Centauria cyanus; [25]): 85%
